{
  "source": "paper PMC13040415",
  "about": "“Structure and Mechanism of PhdC, a Prenylated‐Flavin Maturase” (Proteins, 2025)",
  "key": {"PhdC [1]": {"target": "T1, PhdC (Mycolicibacterium fortuitum, UniProt A0A0N9XAG5)", "T1 construct": "gene XA26_16660; homodimer, site at dimer interface", "T1 sequence (A0A0N9XAG5 2-155)": "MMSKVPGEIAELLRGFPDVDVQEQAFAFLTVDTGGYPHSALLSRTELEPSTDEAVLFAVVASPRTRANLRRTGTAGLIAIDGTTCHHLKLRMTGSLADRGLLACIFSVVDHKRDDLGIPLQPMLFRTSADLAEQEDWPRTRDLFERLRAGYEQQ", "test": "differential scanning fluorimetry (SUPR-DSF); Tm of apo to Tm of FMN-bound", "format": "binding", "settings": "100 mM KPi, pH 7.5; ramp 1°C/min"}, "PhdC [2]": {"target": "T1, PhdC", "test": "isothermal titration calorimetry", "format": "binding"}},
  "data": [
    {"smiles": "Cc1cc2nc3c(=O)[nH]c(=O)nc-3n(C[C@H](O)[C@H](O)[C@H](O)COP(=O)(O)O)c2cc1C", "note": "[FMN]", "values": [
      {"measurement": "Tm", "setting": "PhdC [1]", "value": "63.6 to 66.5", "unit": "°C"},
      {"measurement": "Kd", "setting": "PhdC [2]", "value": "17.8 ± 0.26", "unit": "µM"}
    ]}
  ]
}
